According to PubChem BioAssay (NCI):
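GI50: concentration for 50% inhibition of growth. At the TGI there is no net growth.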

Columns and labels:
Assay in all cases: inhibition of tumour cell growth, NCI panel, 384-well format
786-0 renal = system: 786-0 renal
A498 renal = system: A498 renal
A549 NSCLC = system: A549 NSCLC
ACHN renal = system: ACHN renal
BT-549 breast = system: BT-549 breast
CAKI-1 renal = system: CAKI-1 renal
CCRF-CEM leukemia = system: CCRF-CEM leukemia
COLO 205 colon = system: COLO 205 colon
DU-145 prostate = system: DU-145 prostate
EKVX NSCLC = system: EKVX NSCLC
HCC-2998 colon = system: HCC-2998 colon
HCT-116 colon = system: HCT-116 colon
HCT-15 colon = system: HCT-15 colon
HL-60(TB) leukemia = system: HL-60(TB) leukemia
HOP-62 NSCLC = system: HOP-62 NSCLC
HOP-92 NSCLC = system: HOP-92 NSCLC
HS 578T breast = system: HS 578T breast
HT29 colon = system: HT29 colon
IGROV1 ovarian = system: IGROV1 ovarian
K-562 leukemia = system: K-562 leukemia
KM12 colon = system: KM12 colon
LOX IMVI melanoma = system: LOX IMVI melanoma
M14 melanoma = system: M14 melanoma
MALME-3M melanoma = system: MALME-3M melanoma
MCF7 breast = system: MCF7 breast
MDA-MB-231 breast = system: MDA-MB-231 breast
MDA-MB-435 melanoma = system: MDA-MB-435 melanoma
MDA-MB-468 breast = system: MDA-MB-468 breast
MOLT-4 leukemia = system: MOLT-4 leukemia
NCI-H226 lung = system: NCI-H226 lung
NCI-H23 lung = system: NCI-H23 lung
NCI-H322M lung = system: NCI-H322M lung
NCI-H460 NSCLC = system: NCI-H460 NSCLC
NCI-H522 lung = system: NCI-H522 lung
NCI/ADR-RES ovarian = system: NCI/ADR-RES ovarian
OVCAR-3 ovarian = system: OVCAR-3 ovarian
OVCAR-4 ovarian = system: OVCAR-4 ovarian
OVCAR-8 ovarian = system: OVCAR-8 ovarian
PC-3 prostate = system: PC-3 prostate
RPMI-8226 leukemia = system: RPMI-8226 leukemia
RXF 393 renal = system: RXF 393 renal
SF-268 CNS = system: SF-268 CNS
SF-295 CNS = system: SF-295 CNS
SF-539 CNS = system: SF-539 CNS
SK-MEL-28 melanoma = system: SK-MEL-28 melanoma
SK-MEL-5 melanoma = system: SK-MEL-5 melanoma
SK-OV-3 ovarian = system: SK-OV-3 ovarian
SN12C renal = system: SN12C renal
SNB-19 CNS = system: SNB-19 CNS
SNB-75 CNS = system: SNB-75 CNS
SW-620 colon = system: SW-620 colon
T-47D breast = system: T-47D breast
TK-10 renal = system: TK-10 renal
U251 glioblastoma = system: U251 glioblastoma
UACC-257 melanoma = system: UACC-257 melanoma
UACC-62 melanoma = system: UACC-62 melanoma
UO-31 renal = system: UO-31 renal

Cc1cnc(NC(=O)Nc2cc(Br)c(C)cc2OC[C@@H]2CNCCO2)cn1
GI50 ([…]-0 renal): 101 nM | TGI (786-0 renal): 427 nM | GI50 (A498 renal): 25.5 nM | TGI (A498 renal): 81.8 nM | GI50 (A549 NSCLC): 706 nM | TGI (A549 NSCLC): 14300 nM | GI50 (ACHN renal): 58.5 nM | TGI (ACHN renal): 254 nM | GI50 (BT-549 breast): 84.9 nM | TGI (BT-549 breast): 258 nM | GI50 (CAKI-1 renal): 469 nM | TGI (CAKI-1 renal): 2860 nM | GI50 (CCRF-CEM leukemia): 100 nM | TGI (CCRF-CEM leukemia): 219 nM | GI50 (COLO 205 colon): 1690 nM | TGI (COLO 205 colon): 4720 nM | GI50 (DU-145 prostate): 347 nM | TGI (DU-145 prostate): 1490 nM | GI50 (EKVX NSCLC): 436 nM | TGI (EKVX NSCLC): 11400 nM | GI50 (HCC-2998 colon): 41.4 nM | TGI (HCC-2998 colon): 180 nM | GI50 (HCT-116 colon): 977 nM | TGI (HCT-116 colon): 2300 nM | GI50 (HCT-15 colon): 303 nM | TGI (HCT-15 colon): 1130 nM | GI50 (HL-60(TB) leukemia): 47.8 nM | TGI (HL-60(TB) leukemia): 174 nM | GI50 (HOP-62 NSCLC): 143 nM | TGI (HOP-62 NSCLC): 512 nM | GI50 (HOP-92 NSCLC): 106 nM | TGI (HOP-92 NSCLC): 851 nM | GI50 (HS 578T breast): 52.8 nM | TGI (HS 578T breast): 245 nM | GI50 (HT29 colon): 326 nM | TGI (HT29 colon): 1120 nM | GI50 (IGROV1 ovarian): 354 nM | TGI (IGROV1 ovarian): 12200 nM | GI50 (K-562 leukemia): 157 nM | TGI (K-562 leukemia): 323 nM | GI50 (KM12 colon): 72.3 nM | TGI (KM12 colon): 510 nM | GI50 (LOX IMVI melanoma): 1140 nM | TGI (LOX IMVI melanoma): 2390 nM | GI50 (M14 melanoma): 27.1 nM | TGI (M14 melanoma): 83.3 nM | GI50 (MALME-3M melanoma): 135 nM | TGI (MALME-3M melanoma): 1340 nM | GI50 (MCF7 breast): 56.3 nM | TGI (MCF7 breast): 1680 nM | GI50 (MDA-MB-231 breast): 608 nM | TGI (MDA-MB-231 breast): 6180 nM | GI50 (MDA-MB-435 melanoma): 194 nM | TGI (MDA-MB-435 melanoma): 389 nM | GI50 (MDA-MB-468 breast): 485 nM | TGI (MDA-MB-468 breast): 2660 nM | GI50 (MOLT-4 leukemia): 131 nM | TGI (MOLT-4 leukemia): 262 nM | GI50 (NCI-H226 lung): 5040 nM | TGI (NCI-H226 lung): 18100 nM | GI50 (NCI-H23 lung): 56 nM | TGI (NCI-H23 lung): 244 nM | GI50 (NCI-H322M lung): 195 nM | TGI (NCI-H322M lung): 1830 nM | GI50 (NCI-H460 NSCLC): 290 nM | TGI (NCI-H460 NSCLC): 1430 nM | GI50 (NCI-H522 lung): 1940 nM | TGI (NCI-H522 lung): 5840 nM | GI50 (NCI/ADR-RES ovarian): 254 nM | TGI (NCI/ADR-RES ovarian): 701 nM | GI50 (OVCAR-3 ovarian): 188 nM | TGI (OVCAR-3 ovarian): 781 nM | GI50 (OVCAR-4 ovarian): 163 nM | TGI (OVCAR-4 ovarian): 1390 nM | GI50 (OVCAR-8 ovarian): 153 nM | TGI (OVCAR-8 ovarian): 443 nM | GI50 (PC-3 prostate): 1240 nM | TGI (PC-3 prostate): 14200 nM | GI50 (RPMI-8226 leukemia): 146 nM | TGI (RPMI-8226 leukemia): 317 nM | GI50 (RXF 393 renal): 36.3 nM | TGI (RXF 393 renal): 165 nM | GI50 (SF-268 CNS): 368 nM | TGI (SF-268 CNS): 2940 nM | GI50 (SF-295 CNS): 42.2 nM | TGI (SF-295 CNS): 210 nM | GI50 (SF-539 CNS): 54.3 nM | TGI (SF-539 CNS): 201 nM | GI50 (SK-MEL-28 melanoma): 1050 nM | TGI (SK-MEL-28 melanoma): 2230 nM | GI50 (SK-MEL-5 melanoma): 329 nM | TGI (SK-MEL-5 melanoma): 1350 nM | GI50 (SK-OV-3 ovarian): 157 nM | TGI (SK-OV-3 ovarian): 412 nM | GI50 (SN12C renal): 1800 nM | TGI (SN12C renal): 6090 nM | GI50 (SNB-19 CNS): 482 nM | TGI (SNB-19 CNS): 4850 nM | GI50 (SNB-75 CNS): 369 nM | TGI (SNB-75 CNS): 2950 nM | GI50 (SW-620 colon): 693 nM | TGI (SW-620 colon): 2050 nM | GI50 (T-47D breast): 1860 nM | TGI (T-47D breast): 3630 nM | GI50 (TK-10 renal): 106 nM | TGI (TK-10 renal): 366 nM | GI50 (U251 glioblastoma): 497 nM | TGI (U251 glioblastoma): 1730 nM | GI50 (UACC-257 melanoma): 1420 nM | TGI (UACC-257 melanoma): 2730 nM | GI50 (UACC-62 melanoma): 284 nM | TGI (UACC-62 melanoma): 1640 nM | GI50 (UO-31 renal): 264 nM | TGI (UO-31 renal): 1850 nM
